This is an account of results in ChEMBL document CHEMBL1123116, “N-[[(Mercaptoacetyl)amino]benzoyl]glycines as mucolytic agents” (1985).

Format in all cases: functional
The species named for test [1] is Homo sapiens. The experiment in a line: Percent viscosity reduction after 15 min was tested for in vitro mucolytic activity using pooled human sputum adjusted to pH 7.5 and compared with saline by 0.03 M solution.
Test [2] is filed under the species Homo sapiens. In words: Percent viscosity reduction after 5 min was tested for in vitro mucolytic activity using pooled human sputum adjusted to pH 7.5 and compared with saline by 0.03 M solution of the compound.
Test [3] is filed under the species Homo sapiens. In words: Percent viscosity reduction after 15 min was tested for in vitro mucolytic activity using pooled human sputum adjusted to pH 7.5 and compared with saline by 0.03 M solution of the compound.
Test [4] is filed under the species Homo sapiens. In words: Percent viscosity reduction after 10 min was tested for in vitro mucolytic activity using pooled human sputum adjusted to pH 7.5 and compared with saline by 0.03 M solution of the compound.
The species entered for test [5] is Homo sapiens. The experiment in a line: Percent viscosity reduction after 15 min was tested for in vitro mucolytic activity using pooled human sputum adjusted to pH 7.5 and compared with 0.06 M NAC.

In the test filed under Homo sapiens [1], `NCCN.O=C(O)CNC(=O)c1cccc(NC(=O)CS)c1` came in with a Viscosity reduction of 44%.

On to `O=C(O)CNC(=O)c1cccc(NC(=O)CS)c1`, for which the Viscosity in the test listed under Homo sapiens [2] is given as 64%; in the test filed under Homo sapiens [3], 90%; in the test listed under Homo sapiens [4], 84%. For the same compound, the Viscosity reduction in the test listed under Homo sapiens [1] is 60%.

Consider `O=C([O-])CNC(=O)c1cccc(NC(=O)CS)c1.[Na+]`, for which the Viscosity reduction in the test listed under Homo sapiens [1] is 56%.

Turning to `O=C(O)CNC(=O)c1ccc(NC(=O)CS)cc1`, in the test filed under Homo sapiens [5], the Viscosity is 15%. The same compound registered a Viscosity reduction in the test listed under Homo sapiens [1] of 73%.

With `N.O=C(O)CNC(=O)c1cccc(NC(=O)CS)c1`, the Viscosity reduction in the test listed under Homo sapiens [1] was 59%.

For `CC(=O)N[C@@H](CS)C(=O)O` [ACETYLCYSTEINE], the figures for the Viscosity in the test filed under Homo sapiens [2], in the test filed under Homo sapiens [3] and in the test filed under Homo sapiens [4] were 27%, 31% and 38%, respectively.
